Experimental data published in patent US20240058456A1, “MOLECULES WITH SOLUBILITY TAG AND RELATED METHODS” (Merck Patent GmbH, priority 2020, published 2024).

Test: Solubility and aggregation during conjugation
Assay type: physicochemical
Conditions: conjugation media
Experimental: To this end, 1 eq antibody in a buffer with 150 mM NaCl, 25 mM Tris (pH 8.0) was mixed with a solution of the respective payload (10× or 20× surplus to the concentration of the antibody, depending on the number of linkage sites) and 6 U/ml of transglutaminase. The mixture was incubated for 16 h in a thermomixer at 37° C. and 450 rpm.
For linkage by maleimide chemistry, a 5 mg/mL solution of the respective antibody component in PBS (pH 7.4) was prepared (˜33 μM antibody). The antibody was reduced with TCEP ((tris(2-carboxyethyl)phosphine); ratio of antibody component to TCEP 1:2 to 1:6, depending on the desired DAR; TCEP was used as 2 mM stock, pH 7.0) or in some cases with DTT (dithiothreitol; 20 mM). After incubation for 0.5-2 hours (depending on the number of cysteines to be activated) in a 37° C. water bath, the reaction was allowed to cool down to room temperature.
The solution was desalted to conjugation buffer (10 mM sodium phosphate, pH 6.0, 2 mM EDTA, N2 degassed) on a Sephadex G25 column and adjusted to an antibody concentration of 0.2 mg/mL in conjugation buffer.
Conjugation was initiated by adding the reduced antibody to a solution of the appropriate maleimide-activated linker-payload construct at a suitable ratio (e.g. 1:4 to 1:8 ratio antibody to linker-payload construct for DAR 4; e.g. 1:20 ratio antibody to linker-payload construct for DAR 8). […]

Structure (SMILES): Cc1cccc2c(OC(=O)N(CCC(=O)NCCOS(=O)(=O)O)CCN(C)C(=O)OCc3ccc(NC(=O)[C@H](CCCNC(N)=O)NC(=O)[C@@H](NC(=O)CNC(=O)CNC(=O)CN)C(C)C)cc3)cc3c(c12)[C@H](CCl)CN3C(=O)c1cn2cc(NC(=O)c3cc4ccccc4o3)ccc2n1 [Compound 5]
- solubility of the linker-payload construct under coupling conditions: insufficient
